Assay results published in patent publication US4443466A, “4-Benzyl- and 4-benzoyl-substituted imidazole derivatives and use as medicaments” (priority 1980, dated 1984).
Where two headings read alike, the source gives them in different places.

What was measured:
[1] = test system: indomethacin-induced ulcers; experiment: Preventive effect on formation of indomethacin-induced ulcers; type: in vivo, rat (female Sprague-Dawley); settings: for ED50: Rattus norvegicus, ip, 4 h, read-out: ED50 (ulcer prevention)
[2] = as above; type: in vivo, rat (female Sprague-Dawley); settings: rat, in vivo, iv; LD50 (mouse, i.v.) / ED50 (ulcer); read-out: Therapeutic Index
[3] = test system: male mice on a 55° C. hot plate; experiment: Hot plate test; type: in vivo, mouse (male); settings: for Analgesic activity: 1.5 mg/kg; for change in vivo at 1.5 mg/kg: Mus musculus, ip, 0.5 h, 1.5 mg/kg i.p., read-out: increase in HP-time (%)
Protocol: (§1) The analgesic activity of the compounds of formula (I) was tested in the following manner: […]
Test compounds or saline were given i.p. to male mice. Thirty minutes thereafter, the time for which the mice remained on a 55° C. plate was recorded. The results are expressed as compared to saline.

[4] = Acute toxicity in female NMRI mice, i.v.; settings: in vivo, iv, mouse
Protocol: Acute toxicity was determined by using female mice of NMRI-Strain with an age of about 7 months and weighing 30-40 g. The administration of the test compound was i.v.

[5] = test system: acetic acid-induced writhing; experiment: Writhing test (acetic acid); type: in vivo, rat;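 as to Analgesic activity: ++ means marked effect and + means moderate effect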
Protocol: as §1
The compounds studied and saline were administered p.o. to rats. Forty-five minutes later, 1 ml of 1% acetic acid was administered i.p. The number of writhes was recorded in the following 25 minute period (Koster et al: Fed. Proc. 18:412, 1959).

[6] = test system: carrageenan-induced oedema; experiment: Inhibition of carrageenan-induced oedema; type: in vivo, rat; settings: for inhibition in vivo at 100 mg/kg: po, read-out: inhibition carrageenan-induced oedema (%);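 as to Anti-inflammatory activity: ++ means marked effect and + means moderate effect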
Protocol: The anti-inflammatory activity of the compounds of the invention was determined by inhibition of the carrageenan induced oedema in rats by the compounds examined (Winter C. A. et al., Proc. Soc. Exp. Biol. Med. 111:544, 1962).

[7] = test system: anesthetized Sprague-Dawley rats (blood pressure, pulse frequency); experiment: Blood pressure and pulse frequency in anesthetized normal-weight Sprague-Dawley rats (i.v.); type: in vivo, rat (Sprague-Dawley); settings: for minimal effective dose: Rattus norvegicus, iv; for anti-hypertensive effect: tested as above
Protocol: The anti-hypertensive properties of the imidazole derivatives of the present invention have been determined according to the following procedure. Sprague-Dawley rats of normal weight were first anesthetized with urethane. After this, the femoral artery was connected by way of a polyethylene tube with a blood pressure transducer. The test substance was then injected into the femoral vein and the blood pressure and the pulse frequency were registered with a recorder. The minimum doses producing a significant change were found, i.e. ± at least 20% in the case of blood pressure, and ± at least 3% in the case of pulse frequency.

[8] = read-out: Blood Pressure Minimum Dose having a significant lowering effect
[9] = read-out: Pulse frequency Minimum Dose having a significant lowering effect

Structure (SMILES)	LD50 [4] [mg/kg]	Analgesic activity ([5]; 100 mg/kg)	W-number ([5]; 100 mg/kg p.o.)	Anti-inflammatory activity ([6]; 100 mg/kg p.o. in the rat)	inhibition in vivo at 100 mg/kg ([6]; Rattus norvegicus) [%]	also measured
Cc1ccc(Cc2c[nH]cn2)c(C)c1 [4-(2',4'-dimethylbenzyl)imidazole, 4-(2',4'-Dimethylbenzyl)imidazole]	65	++	0	++	76	ED50 [1]: 0.03 mg/kg; selectivity ratio [2]: 2170; Analgesic activity [3]: +; change in vivo at 1.5 mg/kg [3]: 200%
Clc1cccc(Cl)c1Cc1cnc[nH]1 [4-(2',6'-dichlorobenzyl)imidazole, 4-(2',6'-Dichlorobenzyl)imidazole]	48	–	–	–	–	ED50 [1]: 0.03 mg/kg; selectivity ratio [2]: 1600; minimal effective dose [7, 8]: 0.03 to 0.1 mg/kg; minimal effective dose [7, 9]: 0.03 to 0.1 mg/kg
CCc1cccc(CC)c1Cc1c[nH]cn1 [4-(2',6'-diethylbenzyl)imidazole]	–	–	–	–	–	minimal effective dose [7, 8]: 0.03 to 0.2 mg/kg; minimal effective dose [7, 9]: 0.03 mg/kg
Cc1cccc(C)c1C(=O)c1c[nH]cn1 [4-(2',6'-dimethylbenzoyl)imidazole, 4-(2',6'-Dimethylbenzoyl)imidazole]	> 100	–	–	–	–	prevention of the formation of ulcers ([1]; 10 mg/kg): prevented them partially; prevention of the formation of ulcers ([1]; 20 mg/kg): prevented completely the formation of ulcers; anti-hypertensive effect [7]: only a very slight anti-hypertensive effect
CCc1ccccc1Cc1c[nH]cn1 [4-(2'-ethylbenzyl)imidazole, 4-(2'-Ethylbenzyl)imidazole]	34	–	–	–	–	ED50 [1]: 0.005 mg/kg; selectivity ratio [2]: 6800; Analgesic activity [3]: +; change in vivo at 1.5 mg/kg [3]: 150%
Cc1ccccc1Cc1c[nH]cn1 [4-(2'-methylbenzyl)imidazole, 4-(2'-Methylbenzyl)imidazole]	25	–	–	–	–	prevention of the formation of ulcers ([1]; 5 μg/kg i.p.): complete prevention of the formation of ulcers; ED50 [1]: 0.005 mg/kg; selectivity ratio [2]: 5000; Analgesic activity [3]: +; change in vivo at 1.5 mg/kg [3]: 200%; lowering of blood pressure ([7]; 0.5 mg/kg i.v., 30 minutes after administration): 10%; minimal effective dose [7, 8]: 0.01 to 0.1 mg/kg; minimal effective dose [7, 9]: 0.1 to 1 mg/kg
Cc1ccc(C(=O)c2c[nH]cn2)cc1 [4-(4'-methylbenzoyl)imidazole, 4-(4'-Methylbenzoyl)imidazole]	–	–	–	+	–	inhibition in vivo at 100 mg/kg ([6]; 100 mg/kg p.o. in the rat): 40%
Cc1cccc(C(O)c2c[nH]cn2)c1C (stereo not drawn) [4-[α-(2',3'-Dimethylphenyl)]hydroxymethylimidazole]	–	++	0	+	52	Analgesic activity [3]: ++; change in vivo at 1.5 mg/kg [3]: 400%
Cc1ccc(C(O)c2c[nH]cn2)c(C)c1 (stereo not drawn) [4-[α-(2',4'-Dimethylphenyl)]hydroxymethylimidazole]	–	+	1.3	–	–	–
CCOC(c1c[nH]cn1)c1c(C)cccc1C (stereo not drawn) [4-[α-(2',6'-Dimethylphenyl)]ethoxymethylimidazole]	45	++	0.6	+	35	prevention of the formation of ulcers ([1]; 0.5 mg/kg): prevented them partly; prevention of the formation of ulcers ([1]; 5 mg/kg): completely prevented the formation of ulcers; anti-hypertensive effect [7]: only a very slight anti-hypertensive effect
COC(c1c[nH]cn1)c1c(C)cccc1C (stereo not drawn) [4-[α-(2',6'-Dimethylphenyl)]methoxymethylimidazole]	–	+	13	+	40	–
CCc1cccc(CC)c1C(O)c1c[nH]cn1 (stereo not drawn) [4-[α-(2',6'-diethylphenyl)]hydroxymethylimidazole]	–	–	–	–	–	minimal effective dose [7, 8]: 0.3 to 1 mg/kg; minimal effective dose [7, 9]: 0.3 to 1 mg/kg
CCc1ccccc1C(O)c1c[nH]cn1 (stereo not drawn) [4-[α-(2'-Ethylphenyl)]hydroxymethylimidazole]	–	++	0	++	73	Analgesic activity [3]: +; change in vivo at 1.5 mg/kg [3]: 300%
COc1ccccc1C(O)c1c[nH]cn1 (stereo not drawn) [4-[α-(2'-Methoxyphenyl)]hydroxymethylimidazole]	–	+	2.5	++	69	minimal effective dose [7, 8]: 0.3 to 1 mg/kg; minimal effective dose [7, 9]: 1 mg/kg
Cc1ccccc1C(O)c1c[nH]cn1 (stereo not drawn) [4-[α-(2'-Methylphenyl)]hydroxymethylimidazole]	160	++	0	+	41	prevention of the formation of ulcers ([1]; 0.5 mg/kg): prevented them partly; prevention of the formation of ulcers ([1]; 5 mg/kg): completely prevented the formation of ulcers; anti-hypertensive effect [7]: no anti-hypertensive effect was found
COc1cccc(C(O)c2c[nH]cn2)c1 (stereo not drawn) [4-[α-(3'-Methoxyphenyl)]hydroxymethylimidazole]	–	++	0	++	71	–
Cc1cccc(C(O)c2c[nH]cn2)c1 (stereo not drawn) [4-[α-(3'-Methylphenyl)]hydroxymethylimidazole]	–	++	0	+	34	–
COc1ccc(C(O)c2c[nH]cn2)cc1 (stereo not drawn) [4-[α-(4'-Methoxyphenyl)]hydroxymethylimidazole]	–	+	1.9	–	–	–
Cc1ccc(C(O)c2c[nH]cn2)cc1 (stereo not drawn) [4-[α-(4'-Methylphenyl)]hydroxymethylimidazole]	–	++	0.6	+	38	–
Cc1cccc(C)c1Cc1nc[nH]c1C [5-Methyl-4-(2',6'-dimethylbenzyl)imidazole]	27	–	–	–	–	prevention of the formation of ulcers ([1]; 0.5 mg/kg): partly prevented the formation of ulcers; prevention of the formation of ulcers ([1]; 5 mg/kg): prevented them completely; anti-hypertensive effect [7]: no anti-hypertensive effect was found
Cc1cccc(C)c1C(O)c1nc[nH]c1C (stereo not drawn) [5-Methyl-4-[α-(2',6'-dimethylphenyl)]hydroxymethylimidazole]	–	+	13	+	–	inhibition in vivo at 100 mg/kg ([6]; 100 mg/kg p.o. in the rat): 52%
Cc1ccccc1C(O)c1nc[nH]c1C (stereo not drawn) [5-Methyl-4-[α-(2'-methylphenyl)]hydroxymethylimidazole]	–	–	–	+	–	inhibition in vivo at 100 mg/kg ([6]; 100 mg/kg p.o. in the rat): 67%
Cc1ccccc1C(=O)c1nc[nH]c1C [5-methyl-4-(2'-methylbenzoyl)imidazole, 5-Methyl-4-(2'-methylbenzoyl)imidazole]	–	–	–	+	–	inhibition in vivo at 100 mg/kg ([6]; 100 mg/kg p.o. in the rat): 44%
Cc1ccccc1Cc1nc[nH]c1C [5-methyl-4-(2'-methylbenzyl)imidazole, 5-Methyl-4-(2'-methylbenzyl)imidazole]	–	–	–	+	–	Analgesic activity ([5]; 30 mg/kg): +; W-number ([5]; 30 mg/kg p.o.): 43; inhibition in vivo at 100 mg/kg ([6]; 100 mg/kg p.o. in the rat): 44%
